Test results from ChEMBL document CHEMBL1201862, “PubChem BioAssay data set” (2004).
Active and inactive are the calls of the source.

Assays:
[1] = molecular target: Mitogen-activated protein kinase 10 (Homo sapiens, UniProt P53779); experiment: Dose response biochemical screening assay for inhibitors of c-Jun N-Terminal Kinase 3 (JNK3). [Related pubchem assays: 746 ]
Danio rerio = experiment: In Vivo Angiogenesis Dose-Response Confirmation. [Related pubchem assays: 732 (Assay preceding this confirmatory assay.)]; format: functional, organism-based
Estrogen receptor beta [2] = molecular target: T1, Estrogen receptor beta (Homo sapiens, UniProt Q92731);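 note: recombinant ER-beta bound to coactivator SRC1 peptide in presence of estradiol agonist; inhibitors block coactivator peptide binding and lower the FRET signal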
Estrogen receptor beta [3] = molecular target: T1, Estrogen receptor beta; experiment: blockers of SRC-3 recruitment to ERβ – biochemical, ELISA, streptavidin-HRP readout, orthogonal assay, confirmation (AID 1060)
BJ [4] = experiment: cells; format: functional, cell-based; conditions: Homo sapiens
BJ [5] = experiment: BJ-TERT-LT-ST fibroblast viability loss – cell-based, RAS-independent, luminescence, dose response (AID 1935); format: functional; conditions: Homo sapiens;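 note: BJ fibroblasts immortalized with TERT plus LT and ST oncogenes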
[6] = DRD fibroblast viability loss – cell-based, non-viral oncogenic, luminescence, dose response (AID 1934); format: functional; conditions: Homo sapiens
[7] = viability loss in Vero cells – cytotoxicity control for Vif-APOBEC3G degradation inhibitor project, dose response (AID 1117358); format: functional; conditions: Vero
BJ [8] = experiment: BJ-TERT fibroblast viability loss – cell-based, RAS-independent, luminescence, dose response (AID 1933); format: functional; conditions: Homo sapiens
[9] = reduced cellular PGC1a acetyl-lysine signal – cell-based, cherry-picked samples, dose response (AID 720514); format: functional;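 note: potency may reflect raised or lowered acetylation signal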
[10] = Trypanosoma cruzi growth suppression in host cells – NIH3T3 host cells, beta-gal luminescence, confirmation (AID 2044); format: functional, cell-based;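 note: intracellular parasites grown in NIH/3T3 mouse fibroblasts as host cells; luminescent beta-galactosidase reporter signal from transgenic T. cruzi replicating inside host cells; inhibitors lower the luminescence signal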
[11] = molecular target: T2, Replicative DNA helicase DnaB (Mycobacterium tuberculosis, UniProt P9WMR3); experiment: DnaB intein splicing inhibitors, dose response, biochemical, cell-free fluorescence (AID 449749); format: functional
T2 sequence (P9WMR3 whole entry): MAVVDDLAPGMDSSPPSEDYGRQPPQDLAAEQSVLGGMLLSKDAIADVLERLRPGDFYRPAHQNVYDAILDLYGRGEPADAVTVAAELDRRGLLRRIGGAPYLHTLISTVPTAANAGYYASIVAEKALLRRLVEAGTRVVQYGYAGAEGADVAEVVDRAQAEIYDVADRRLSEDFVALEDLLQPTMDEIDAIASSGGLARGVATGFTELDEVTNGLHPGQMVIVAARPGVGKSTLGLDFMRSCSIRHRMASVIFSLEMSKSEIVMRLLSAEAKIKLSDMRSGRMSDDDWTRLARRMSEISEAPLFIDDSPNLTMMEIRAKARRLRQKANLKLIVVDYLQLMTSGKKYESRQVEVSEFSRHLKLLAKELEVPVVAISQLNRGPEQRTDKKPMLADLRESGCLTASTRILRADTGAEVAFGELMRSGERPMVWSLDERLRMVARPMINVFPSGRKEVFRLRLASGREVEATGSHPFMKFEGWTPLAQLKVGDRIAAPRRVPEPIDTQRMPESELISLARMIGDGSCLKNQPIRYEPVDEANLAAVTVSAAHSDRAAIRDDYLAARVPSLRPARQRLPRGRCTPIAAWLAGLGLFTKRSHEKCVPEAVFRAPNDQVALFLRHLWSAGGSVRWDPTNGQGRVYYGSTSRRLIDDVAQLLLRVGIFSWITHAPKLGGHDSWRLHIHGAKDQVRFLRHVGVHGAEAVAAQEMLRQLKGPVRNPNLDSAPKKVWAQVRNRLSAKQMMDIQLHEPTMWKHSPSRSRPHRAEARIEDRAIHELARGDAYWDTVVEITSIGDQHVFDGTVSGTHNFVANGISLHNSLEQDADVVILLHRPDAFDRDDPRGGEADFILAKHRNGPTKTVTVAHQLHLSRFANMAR

Protein RecA = molecular target: T3, Protein RecA (Mycobacterium tuberculosis, UniProt P9WHJ3); experiment: Fluorescence Cell-Free Homogeneous Dose Retest to Identify Inhibitors of RecA-Intein Splicing Activity. [Related pubchem assays (depositor defined):AID2097, AID2223, AID489010, AID492950]; format: functional
T3 sequence (P9WHJ3 whole entry): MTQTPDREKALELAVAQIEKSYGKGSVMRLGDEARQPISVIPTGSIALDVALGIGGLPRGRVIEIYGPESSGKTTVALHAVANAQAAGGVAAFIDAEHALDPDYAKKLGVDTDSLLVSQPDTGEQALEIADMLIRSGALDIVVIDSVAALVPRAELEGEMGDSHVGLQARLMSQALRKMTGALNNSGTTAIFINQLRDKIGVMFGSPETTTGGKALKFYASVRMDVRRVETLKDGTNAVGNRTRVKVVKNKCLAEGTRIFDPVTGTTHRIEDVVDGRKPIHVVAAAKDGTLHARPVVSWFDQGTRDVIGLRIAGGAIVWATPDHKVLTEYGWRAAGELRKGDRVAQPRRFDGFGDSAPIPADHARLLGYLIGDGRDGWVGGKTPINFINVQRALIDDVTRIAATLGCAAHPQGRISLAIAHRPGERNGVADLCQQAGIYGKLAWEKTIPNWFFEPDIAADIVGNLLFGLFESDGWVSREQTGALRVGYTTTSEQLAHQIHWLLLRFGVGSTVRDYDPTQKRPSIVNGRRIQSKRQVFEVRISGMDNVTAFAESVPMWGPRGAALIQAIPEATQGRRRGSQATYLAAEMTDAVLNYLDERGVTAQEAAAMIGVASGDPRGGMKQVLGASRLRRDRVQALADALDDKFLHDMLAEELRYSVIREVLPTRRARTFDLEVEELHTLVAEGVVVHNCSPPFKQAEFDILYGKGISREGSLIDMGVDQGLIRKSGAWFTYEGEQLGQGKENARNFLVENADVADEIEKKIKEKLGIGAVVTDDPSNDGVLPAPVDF

[12] = NIH3T3 cell viability loss – ATP luminescence, mouse fibroblasts, counter-screen, dose response (AID 2010); format: functional, cell-based;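 note: cells exposed to compound for about 90 hours before reading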
H4 = experiment: Luminescence Cell-Based Dose Response HTS to Identify Activators of 5'UTR Stem-Loop Driven Prion Protein mRNA Translation in H4 Neuroglioblastoma Cells. [Related pubchem assays: 1829 (Project Summary), 1814 (Primary HTS)]; format: functional; conditions: Homo sapiens
[13] = Luminescence Cell-Based Dose Response HTS to Identify Activators of Luciferase Translation or Activity in H4 […] Cells. [Related pubchem assays: 1829 (Project Summary), 1814 (Primary HTS)]; format: functional
[14] = fluconazole-exposed Candida albicans growth modulators – fluorescence, retest, confirmation (AID 2467); format: functional, cell-based
[15] = Luminescence Cell-Based Dose Confirmation HTS to Identify Activators of 5'UTR Stem-Loop Driven Alpha-Synuclein mRNA Translation in H4 Neuroglioblastoma Cells. [Related pubchem assays: 1829 (Project Summary), 1814 (Primary HTS)]; format: functional
[16] = NIH-3T3 fibroblast cytotoxicity, dose response, cytotoxicity control, cell-based, fluorescence, Alamar Blue, secondary assay (AID 2327); format: functional;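 note: NIH-3T3 mouse fibroblasts cultured with fluconazole at 8 µg/mL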
Cytochrome P450 2C19 = Cytochrome P450 2C19 (Homo sapiens, UniProt P33261); experiment: qHTS Assay for Inhibitors and Substrates of Cytochrome P450 2C19. [Related pubchem assays: 410 ]; format: ADME; conditions: read-out: Potency
Cytochrome P450 3A4 = Cytochrome P450 3A4 (Homo sapiens, UniProt P08684); conditions: Potency;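 note: confirmatory qHTS run detecting inhibitors and substrates of CYP3A4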
Cytochrome P450 2D6 = Cytochrome P450 2D6 (Homo sapiens, UniProt P10635); experiment: qHTS Assay for Inhibitors and Substrates of Cytochrome P450 2D6. [Related pubchem assays: 410 ]; format: ADME; conditions: read-out: Potency
[17] = molecular target: Aryl hydrocarbon receptor (Homo sapiens, UniProt P35869); experiment: Luminescence-based cell-based high throughput dose response assay for activators of the Aryl Hydrocarbon Receptor (AHR). [Related pubchem assays: 2796 (Primary screen (AHR activators in singlicate)), 2845 (Confirmation screen (AHR activators in triplicate)), 434939 (Counterscreen (PXR activators in triplicate)), 2804 (Summary (AHR activators))]; format: ADME
Large T antigen = Large T antigen (Simian virus 40, UniProt P03070); format: functional, Betapolyomavirus macacae;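 note: Confirmatory-stage PubChem screen for compounds that inhibit SV40 T antigen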
SUMO-activating enzyme [18] = molecular target: T4, SUMO-activating enzyme (Homo sapiens, UniProt Q9UBT2); experiment: blockers of UBC9-mediated SUMO conjugation – biochemical, AlphaScreen, SUMOylation inhibitor project, confirmation (AID 2018); format: functional
Protein Tat = Protein Tat (Human immunodeficiency virus type 1 group M subtype B (isolate HXB2)(HIV-1), UniProt P04608); format: functional;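 note: tat binding to TAR RNA read out by fluorescence polarization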
SUMO-activating enzyme [19] = molecular target: T4, SUMO-activating enzyme; experiment: blockers of SAE1/SAE2–UBC9 SUMO transfer – biochemical, HTRF, uHTS, primary screen (AID 2006); format: protein-complex assay
Estrogen receptor = molecular target: T5, Estrogen receptor (Homo sapiens, UniProt P03372);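 note: potency for inhibiting coactivator peptide recruitment to the receptor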
T5 sequence (P03372 whole entry): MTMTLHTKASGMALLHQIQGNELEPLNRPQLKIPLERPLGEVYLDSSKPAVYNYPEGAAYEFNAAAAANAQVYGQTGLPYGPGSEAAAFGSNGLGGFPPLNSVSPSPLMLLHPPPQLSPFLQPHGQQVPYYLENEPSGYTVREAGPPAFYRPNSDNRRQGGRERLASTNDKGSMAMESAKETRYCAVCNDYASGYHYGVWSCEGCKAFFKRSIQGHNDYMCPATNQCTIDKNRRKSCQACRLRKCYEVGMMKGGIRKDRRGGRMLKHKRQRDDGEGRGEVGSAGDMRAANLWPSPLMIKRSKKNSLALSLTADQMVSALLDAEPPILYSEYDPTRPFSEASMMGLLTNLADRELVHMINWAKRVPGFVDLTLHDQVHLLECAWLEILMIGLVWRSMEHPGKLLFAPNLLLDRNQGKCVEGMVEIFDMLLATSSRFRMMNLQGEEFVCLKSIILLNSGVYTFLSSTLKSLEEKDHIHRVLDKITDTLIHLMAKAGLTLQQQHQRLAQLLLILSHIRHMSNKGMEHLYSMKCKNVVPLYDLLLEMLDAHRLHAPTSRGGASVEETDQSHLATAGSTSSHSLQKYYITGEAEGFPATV

Genome polyprotein = Genome polyprotein (Hepatitis C virus, UniProt Q2Q167); experiment: disruption of hepatitis C core self-association – biochemical, TR-FRET, dose response (AID 2159); design: species or system Hepacivirus hominis;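 note: blocks dimerization of HCV core protein measured by TR-FRET between tagged core106 pairs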
Major prion protein = Major prion protein (Homo sapiens, UniProt P04156); format: functional, cell-based

T1 sequence (Q92731 whole entry): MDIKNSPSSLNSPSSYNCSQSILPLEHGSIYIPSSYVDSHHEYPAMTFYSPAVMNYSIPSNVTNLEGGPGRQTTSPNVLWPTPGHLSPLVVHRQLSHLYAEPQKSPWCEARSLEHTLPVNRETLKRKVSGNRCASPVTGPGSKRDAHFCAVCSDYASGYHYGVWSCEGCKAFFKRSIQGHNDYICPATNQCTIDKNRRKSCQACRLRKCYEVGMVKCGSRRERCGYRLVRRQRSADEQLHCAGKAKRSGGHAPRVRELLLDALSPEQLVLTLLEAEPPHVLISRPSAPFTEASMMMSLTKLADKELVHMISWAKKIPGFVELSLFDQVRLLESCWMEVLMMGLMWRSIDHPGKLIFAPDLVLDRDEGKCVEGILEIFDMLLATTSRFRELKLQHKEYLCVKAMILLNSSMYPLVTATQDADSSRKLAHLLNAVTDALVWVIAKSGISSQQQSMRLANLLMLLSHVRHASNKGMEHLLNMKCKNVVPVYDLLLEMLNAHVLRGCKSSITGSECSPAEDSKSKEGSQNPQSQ
Mitogen-activated protein kinase 10, sequence (P53779 whole entry): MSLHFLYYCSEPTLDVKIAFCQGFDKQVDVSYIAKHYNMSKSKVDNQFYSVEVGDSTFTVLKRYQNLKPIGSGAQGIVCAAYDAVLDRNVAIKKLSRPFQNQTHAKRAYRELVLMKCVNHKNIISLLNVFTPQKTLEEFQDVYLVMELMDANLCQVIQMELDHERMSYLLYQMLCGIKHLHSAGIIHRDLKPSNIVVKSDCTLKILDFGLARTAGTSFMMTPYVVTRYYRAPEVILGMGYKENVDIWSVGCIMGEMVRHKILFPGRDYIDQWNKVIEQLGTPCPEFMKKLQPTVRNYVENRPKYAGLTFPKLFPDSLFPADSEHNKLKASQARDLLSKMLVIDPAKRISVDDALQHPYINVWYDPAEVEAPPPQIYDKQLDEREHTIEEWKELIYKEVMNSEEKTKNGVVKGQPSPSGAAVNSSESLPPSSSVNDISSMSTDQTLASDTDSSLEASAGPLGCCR
T4 sequence (Q9UBE0 whole entry): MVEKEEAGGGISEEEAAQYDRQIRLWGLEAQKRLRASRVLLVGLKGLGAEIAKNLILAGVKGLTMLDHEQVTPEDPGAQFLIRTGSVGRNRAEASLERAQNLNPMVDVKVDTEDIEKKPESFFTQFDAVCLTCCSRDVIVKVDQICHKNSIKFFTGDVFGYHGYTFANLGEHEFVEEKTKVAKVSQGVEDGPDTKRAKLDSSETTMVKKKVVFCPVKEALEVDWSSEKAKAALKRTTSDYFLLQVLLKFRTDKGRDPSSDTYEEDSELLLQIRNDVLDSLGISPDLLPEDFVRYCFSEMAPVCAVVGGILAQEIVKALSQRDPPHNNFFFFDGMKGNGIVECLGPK
T4 sequence (Q9UBT2 whole entry): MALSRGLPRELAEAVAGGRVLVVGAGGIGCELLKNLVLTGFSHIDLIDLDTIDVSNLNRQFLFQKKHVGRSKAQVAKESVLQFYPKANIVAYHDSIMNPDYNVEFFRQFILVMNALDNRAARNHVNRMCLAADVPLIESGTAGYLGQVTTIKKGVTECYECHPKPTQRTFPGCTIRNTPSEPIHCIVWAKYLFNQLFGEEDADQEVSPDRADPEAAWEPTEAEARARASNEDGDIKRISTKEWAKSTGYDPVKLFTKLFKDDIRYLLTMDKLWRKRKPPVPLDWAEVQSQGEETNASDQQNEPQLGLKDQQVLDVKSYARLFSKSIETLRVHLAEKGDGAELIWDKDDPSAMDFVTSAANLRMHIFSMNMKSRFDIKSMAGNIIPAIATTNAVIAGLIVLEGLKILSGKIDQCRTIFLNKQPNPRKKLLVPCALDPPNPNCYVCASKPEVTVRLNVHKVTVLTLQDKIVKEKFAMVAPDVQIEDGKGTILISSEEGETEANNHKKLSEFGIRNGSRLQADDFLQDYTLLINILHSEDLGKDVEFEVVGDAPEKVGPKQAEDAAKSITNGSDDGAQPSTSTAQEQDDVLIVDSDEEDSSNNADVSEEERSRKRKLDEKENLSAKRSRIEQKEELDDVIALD
Protein Tat, sequence (P04608 whole entry): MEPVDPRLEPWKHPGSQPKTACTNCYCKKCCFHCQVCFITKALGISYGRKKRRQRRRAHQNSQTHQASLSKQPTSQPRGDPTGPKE
Large T antigen, sequence (P03070 whole entry): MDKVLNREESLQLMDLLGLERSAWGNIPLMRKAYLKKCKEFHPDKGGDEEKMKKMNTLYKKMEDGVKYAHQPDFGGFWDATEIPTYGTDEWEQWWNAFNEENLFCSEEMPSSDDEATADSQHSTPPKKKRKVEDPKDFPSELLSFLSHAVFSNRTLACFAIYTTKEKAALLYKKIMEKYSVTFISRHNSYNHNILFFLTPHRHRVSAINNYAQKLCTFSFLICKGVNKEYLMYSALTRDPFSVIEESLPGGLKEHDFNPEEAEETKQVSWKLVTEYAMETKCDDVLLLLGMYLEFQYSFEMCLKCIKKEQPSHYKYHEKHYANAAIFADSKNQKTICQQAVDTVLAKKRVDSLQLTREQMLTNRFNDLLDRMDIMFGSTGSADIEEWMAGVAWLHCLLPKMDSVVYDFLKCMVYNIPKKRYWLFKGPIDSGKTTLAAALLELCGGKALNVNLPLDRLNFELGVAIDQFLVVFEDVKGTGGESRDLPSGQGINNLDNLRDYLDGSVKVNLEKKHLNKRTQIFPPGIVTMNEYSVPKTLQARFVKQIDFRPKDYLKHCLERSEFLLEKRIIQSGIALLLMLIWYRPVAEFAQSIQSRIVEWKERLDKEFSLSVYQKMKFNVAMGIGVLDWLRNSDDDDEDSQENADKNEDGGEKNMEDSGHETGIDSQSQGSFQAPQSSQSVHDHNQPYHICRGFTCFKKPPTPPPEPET
Cytochrome P450 2C19, sequence (P33261 whole entry): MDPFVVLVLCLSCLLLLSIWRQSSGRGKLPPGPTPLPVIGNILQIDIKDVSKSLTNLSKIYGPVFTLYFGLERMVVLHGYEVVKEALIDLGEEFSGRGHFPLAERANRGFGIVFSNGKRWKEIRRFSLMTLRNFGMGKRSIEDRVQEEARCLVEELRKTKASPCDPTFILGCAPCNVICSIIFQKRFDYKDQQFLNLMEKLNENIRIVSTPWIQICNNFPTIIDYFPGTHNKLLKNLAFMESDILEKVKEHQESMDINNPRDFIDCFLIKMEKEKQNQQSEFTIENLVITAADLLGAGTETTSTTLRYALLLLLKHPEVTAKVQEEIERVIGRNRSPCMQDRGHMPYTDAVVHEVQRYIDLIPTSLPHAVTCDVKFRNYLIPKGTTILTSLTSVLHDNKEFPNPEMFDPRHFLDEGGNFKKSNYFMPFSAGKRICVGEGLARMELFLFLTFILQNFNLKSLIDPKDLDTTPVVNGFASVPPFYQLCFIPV
Cytochrome P450 2D6, sequence (P10635 whole entry): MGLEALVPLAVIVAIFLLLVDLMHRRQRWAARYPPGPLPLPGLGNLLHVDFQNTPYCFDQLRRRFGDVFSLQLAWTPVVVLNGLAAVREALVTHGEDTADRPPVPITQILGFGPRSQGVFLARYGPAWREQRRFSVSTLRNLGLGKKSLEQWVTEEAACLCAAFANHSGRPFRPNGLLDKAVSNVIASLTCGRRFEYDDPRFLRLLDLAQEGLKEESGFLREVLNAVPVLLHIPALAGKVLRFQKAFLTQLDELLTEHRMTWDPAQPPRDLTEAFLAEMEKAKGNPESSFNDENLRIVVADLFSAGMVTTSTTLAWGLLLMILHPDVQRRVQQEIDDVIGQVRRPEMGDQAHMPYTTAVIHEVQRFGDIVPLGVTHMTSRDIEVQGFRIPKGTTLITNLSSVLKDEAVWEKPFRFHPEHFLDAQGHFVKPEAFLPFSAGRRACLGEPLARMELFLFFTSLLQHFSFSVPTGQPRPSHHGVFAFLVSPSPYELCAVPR
Aryl hydrocarbon receptor, sequence (P35869 whole entry): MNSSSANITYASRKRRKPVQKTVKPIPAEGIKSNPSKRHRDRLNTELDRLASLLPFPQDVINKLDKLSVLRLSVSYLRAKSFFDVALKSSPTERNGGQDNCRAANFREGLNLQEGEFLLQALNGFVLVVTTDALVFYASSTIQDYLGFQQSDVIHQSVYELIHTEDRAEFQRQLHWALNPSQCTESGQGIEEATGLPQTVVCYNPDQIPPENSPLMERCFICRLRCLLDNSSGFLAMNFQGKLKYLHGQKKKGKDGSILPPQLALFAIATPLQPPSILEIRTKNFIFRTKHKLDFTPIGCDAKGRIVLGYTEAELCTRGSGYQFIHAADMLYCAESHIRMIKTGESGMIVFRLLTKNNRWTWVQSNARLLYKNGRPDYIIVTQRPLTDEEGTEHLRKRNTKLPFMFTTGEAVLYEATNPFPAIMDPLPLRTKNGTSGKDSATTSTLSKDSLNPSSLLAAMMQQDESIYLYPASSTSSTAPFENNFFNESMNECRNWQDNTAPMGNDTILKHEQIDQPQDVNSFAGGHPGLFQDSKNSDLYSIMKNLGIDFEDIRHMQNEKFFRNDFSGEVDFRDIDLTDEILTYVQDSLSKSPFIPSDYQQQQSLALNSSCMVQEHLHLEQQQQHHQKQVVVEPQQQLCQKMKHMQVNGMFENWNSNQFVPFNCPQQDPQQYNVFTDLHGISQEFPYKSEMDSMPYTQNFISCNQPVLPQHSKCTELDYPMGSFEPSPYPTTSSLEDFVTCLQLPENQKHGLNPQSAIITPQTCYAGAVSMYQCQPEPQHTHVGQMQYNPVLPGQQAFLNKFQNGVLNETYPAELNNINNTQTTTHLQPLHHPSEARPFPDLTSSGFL
Genome polyprotein, sequence (Q2Q167 whole entry): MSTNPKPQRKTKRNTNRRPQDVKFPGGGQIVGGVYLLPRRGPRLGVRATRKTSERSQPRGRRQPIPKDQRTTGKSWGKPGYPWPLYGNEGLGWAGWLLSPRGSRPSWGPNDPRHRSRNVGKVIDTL

With `Oc1c2nc3cccc(Cl)c3c-2ncn1Cc1ccncc1` as the molecule, how does the IC50 [1] read?
The IC50 was > 93.1 µM (not active).

Which IC50 (Danio rerio) does the source give for `O=C1Nc2ccccc2/C1=C1/Nc2ccc(Br)cc2/C1=N\OCCN1CCNCC1` here?
Its IC50 is > 30 µM (not active).

What does the source list for `c1ccc(Cc2nnc3sc(-c4ccco4)nn23)cc1`?
IC50 (Estrogen receptor beta [2]): 11.4 µM (active); IC50 (Estrogen receptor beta [3]): 15.2 µM (not active)

What does the source list for `CCCOc1ccccc1C1CC(=O)NC2=C1C(=O)CCC2` (configuration not stated)?
EC50 (BJ [4]): 44.4 µM (active); EC50 (BJ [5]): 17.2 µM (active); EC50 [6]: 32.7 µM (active); CC50 [7]: > 40 µM (active); EC50 (BJ [8]): 16 µM (active)

Which IC50 (Danio rerio) does the source give for `ONC1c2cc(Cl)ccc2-c2c(Cl)cc(Cl)cc21` (configuration not stated) here?
The IC50 was < 0.3 µM (not active).

Which AC50 [9] does the source give for `O=C(OCn1ncc(Cl)c(Cl)c1=O)c1ccc(C(F)(F)F)cc1` here?
Its AC50 is 20.6 µM (active).

What about the EC50 [10] of the same molecule?
Its EC50 is 1.92 µM (active).

What about the AC50 [11] of the same molecule?
The AC50 was 1.23 µM (active).

What about the EC50 (Protein RecA) of the same molecule?
The EC50 was 0.308 µM (active).

What about the EC50 [12] of the same molecule?
The EC50 was 1.89 µM (active).

What about the EC50 (H4) of the same molecule?
The EC50 was > 120 µM (not active).

What about the EC50 [13] of the same molecule?
Its EC50 is > 120 µM (not active).

What about the EC50 [14] of the same molecule?
The EC50 was > 38 µM (not active).

And the EC50 [15]?
Its EC50 is > 120 µM (not active).

What about the EC50 [16] of the same molecule?
The EC50 was 4.13 µM (inconclusive).

What does the source list for `COC(=O)N1CCc2cc(OC)c(OC)cc2C1Cc1ccc(OC)cc1` (configuration not stated)?
AC50 (Cytochrome P450 2C19): 3.98 µM (inconclusive); AC50 (Cytochrome P450 3A4): 3.98 µM (inconclusive); AC50 (Cytochrome P450 2D6): 3.16 µM (inconclusive)

For `CCCc1nn(C)c(C(=O)Nc2cccc3ccccc23)c1Cl`, which EC50 [17] is on record?
The EC50 was 5.22 µM (active).

Which IC50 (Large T antigen) does the source give for `Cc1ccsc1/C=N/c1ccc(O)cc1` here?
The IC50 was 31.2 µM (active).

And the EC50 (Protein RecA)?
The EC50 was > 380 µM (inconclusive).

What about the IC50 (SUMO-activating enzyme [18]) of the same molecule?
Its IC50 is 2.36 µM (active).

What about the IC50 (Protein Tat) of the same molecule?
Its IC50 is 30.5 µM (inconclusive).

What about the IC50 (SUMO-activating enzyme [19]) of the same molecule?
Its IC50 is 9.41 µM (active).

With `c1ccc(-c2onc3cc4c(cc23)OCCO4)cc1` as the molecule, how does the IC50 [1] read?
Its IC50 is 50.1 µM (not active).

Which IC50 (Estrogen receptor beta [2]) does the source give for `O=C(CSc1nc2scc(-c3ccco3)c2c(=O)n1-c1ccccc1)NCC1CCCO1` (configuration not stated) here?
The IC50 was 22.1 µM (active).

And the IC50 (Estrogen receptor beta [3])?
Its IC50 is 102 µM (not active).

And the IC50 (Estrogen receptor)?
The IC50 was 30.1 µM (not active).

What does the source list for `CCOC(=O)c1sc(NC(=S)NC(=O)C2CCCC2)cc1C`?
IC50 (cells): > 138 µM (inactive); IC50 (Genome polyprotein): > 49.8 µM (not active); IC50 (Major prion protein): 5.29 µM (active)

With `Nc1ccccc1NC1=CC(=O)CC(c2ccco2)C1` (configuration not stated) as the molecule, how does the IC50 (Protein Tat) read?
Its IC50 is 31.6 µM (inconclusive).
